The source of these data is US20210300940A1 (Merck Patent GmbH, priority 2018, published 2021).

Some results are limits rather than exact numbers.

One assay deals with T1, TLR7 (Homo sapiens, UniProt Q9NYK1).
T1 construct: expressed in transfected cells; host or cells: HEK/293 cells carrying TLR7 and an NF-kB luciferase reporter
T1 sequence (Q9NYK1 27-1049): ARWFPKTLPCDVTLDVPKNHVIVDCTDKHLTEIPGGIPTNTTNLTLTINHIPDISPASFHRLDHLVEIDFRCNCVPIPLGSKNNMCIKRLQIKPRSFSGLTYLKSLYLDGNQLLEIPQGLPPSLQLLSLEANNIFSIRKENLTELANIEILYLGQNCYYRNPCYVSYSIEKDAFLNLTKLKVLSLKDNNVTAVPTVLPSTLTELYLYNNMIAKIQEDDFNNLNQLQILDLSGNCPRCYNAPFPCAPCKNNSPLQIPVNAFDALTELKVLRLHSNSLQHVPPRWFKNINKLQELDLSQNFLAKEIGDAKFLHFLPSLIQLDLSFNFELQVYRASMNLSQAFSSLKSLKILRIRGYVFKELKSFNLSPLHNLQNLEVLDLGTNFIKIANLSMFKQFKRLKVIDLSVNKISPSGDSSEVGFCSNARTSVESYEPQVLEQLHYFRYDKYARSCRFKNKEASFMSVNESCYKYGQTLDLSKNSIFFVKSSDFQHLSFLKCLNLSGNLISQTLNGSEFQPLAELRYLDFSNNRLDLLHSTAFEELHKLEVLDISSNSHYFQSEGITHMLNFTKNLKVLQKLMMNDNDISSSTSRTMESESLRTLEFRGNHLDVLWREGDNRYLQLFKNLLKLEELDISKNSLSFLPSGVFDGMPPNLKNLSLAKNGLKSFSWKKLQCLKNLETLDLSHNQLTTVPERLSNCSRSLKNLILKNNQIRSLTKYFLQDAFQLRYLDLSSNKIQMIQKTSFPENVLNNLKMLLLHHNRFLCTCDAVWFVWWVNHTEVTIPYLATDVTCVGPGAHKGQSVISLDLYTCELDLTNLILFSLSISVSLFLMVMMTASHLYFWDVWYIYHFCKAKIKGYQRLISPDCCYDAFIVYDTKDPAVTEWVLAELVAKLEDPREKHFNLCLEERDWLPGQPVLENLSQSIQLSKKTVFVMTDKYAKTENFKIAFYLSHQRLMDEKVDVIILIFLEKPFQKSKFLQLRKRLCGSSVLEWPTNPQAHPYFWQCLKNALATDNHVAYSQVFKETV
Nature of the assay: HEK/293 TLR7 Cell Assay. The following applies: TLR7/NFKb HEK cells, R848 agonist 10 uM final concentration, Steady-Glo readout; read-out: TLR7 potency. In kind it is cell-based. The protocol: (§1) Example 389: HEK/293 TLR7 Cell Assay Into 384 CulturePlates (Corning 3765) was placed 5000 c/w of TLR7/NFKb HEK cells in 30 uL DMEM without Phenol red (gibco #31053-028) and 10% heat inactivated fetal bovine serum, 10% penicillin-streptomycin, and 2 mM L-Glutamine. The cells were incubated for 24 h at 37° C., 10% carbon dioxide and 90% relative humidity. 3 uL of controls, standards, and compounds were dispensed into wells, incubated for 30 min then 3 uL of R848 agonist (10 uM final concentration) was added in 20 mM Hepes. After incubation for 5 hours, they were allowed to stand at room temperature for 15 min. To this was added 10 uL of Steady-Glo substrate reagent and shake assay plate for 5 min at 1500 rpm. The assay plate was allowed to sit for 30 min at room temperature and then the plate was read on EnVision.

The target of a further assay is T2, TLR8 (Homo sapiens, UniProt Q9NR97).
T2 construct: expressed in transfected cells; host or cells: HEK/293 reporter cells (NF-kB luciferase)
T2 sequence (Q9NR97 27-1041): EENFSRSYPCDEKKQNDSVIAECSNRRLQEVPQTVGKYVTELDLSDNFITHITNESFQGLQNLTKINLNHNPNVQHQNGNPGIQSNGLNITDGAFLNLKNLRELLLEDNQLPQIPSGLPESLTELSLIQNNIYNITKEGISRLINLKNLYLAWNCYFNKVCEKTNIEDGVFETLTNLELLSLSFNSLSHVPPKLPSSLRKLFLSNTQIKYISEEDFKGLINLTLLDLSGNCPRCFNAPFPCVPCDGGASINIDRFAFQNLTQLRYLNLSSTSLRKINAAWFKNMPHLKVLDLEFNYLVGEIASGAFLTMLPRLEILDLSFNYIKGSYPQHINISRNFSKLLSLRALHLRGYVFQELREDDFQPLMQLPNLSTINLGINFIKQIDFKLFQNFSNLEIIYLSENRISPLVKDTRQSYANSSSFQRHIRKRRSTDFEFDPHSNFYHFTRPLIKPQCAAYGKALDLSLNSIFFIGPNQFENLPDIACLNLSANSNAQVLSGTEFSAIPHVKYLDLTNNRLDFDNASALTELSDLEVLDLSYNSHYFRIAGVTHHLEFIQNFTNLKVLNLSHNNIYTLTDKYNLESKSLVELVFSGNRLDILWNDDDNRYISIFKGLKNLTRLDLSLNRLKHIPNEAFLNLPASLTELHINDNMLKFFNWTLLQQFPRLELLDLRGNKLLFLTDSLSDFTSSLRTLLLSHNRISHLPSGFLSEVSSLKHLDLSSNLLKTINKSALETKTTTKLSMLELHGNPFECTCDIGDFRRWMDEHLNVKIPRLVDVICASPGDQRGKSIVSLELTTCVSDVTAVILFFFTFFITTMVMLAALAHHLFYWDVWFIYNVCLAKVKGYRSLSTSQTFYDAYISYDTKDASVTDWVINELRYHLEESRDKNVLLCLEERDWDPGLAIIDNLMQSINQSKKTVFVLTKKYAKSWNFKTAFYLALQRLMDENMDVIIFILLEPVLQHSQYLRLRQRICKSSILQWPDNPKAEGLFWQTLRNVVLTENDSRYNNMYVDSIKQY
Nature of the assay: HEK/293 TLR8 Cell Assay. The following applies: HEK cells, R848 agonist 30 uM final concentration, Steady-Glo readout; read-out: TLR8 potency. In kind it is cell-based. The protocol:
as §1, with “Example 390:” for “Example 389:”, “HEK/293 TLR8” for “HEK/293 TLR7”, “serum, 1%” for “serum, 10%”, “agonist (30” for “agonist (10”

For the molecule `C[C@@H]1CN(c2cnc(C#N)c3ncccc23)C[C@H](C(=O)NCC(O)C(F)(F)F)O1` (stereo partly drawn) [Example 269, (2R,6R)-4-(8-Cyano-[1,7]naphthyridin-5-yl)-6-methyl-morpholine-2-carboxylic acid (3,3,3-trifluoro-2-hydroxy-propyl)-amide], the IC50 on TLR7 and at TLR8 was above 150 nM each time.
On to `C[C@@H]1CN(c2ccc(C#N)c3nccnc23)C[C@H](C(=O)NC[C@H]2COCCN2C)O1` (single isomer, unassigned) [Example 263], for which the IC50 on TLR7 and at TLR8 was below 75 nM each time.
`CN1CCC(F)(CC(=O)N[C@@H]2C[C@H](C(F)(F)F)CN(c3ccc(C#N)c4nccnc34)C2)CC1` [Example 77]: the IC50 at TLR7 and at TLR8 was below 75 nM in each case.
Regarding `C[C@@H]1CN(c2ccc(C#N)c3nccnc23)C[C@H](c2nc(C3CC3)no2)O1` (racemic) [Example 214, 8-[(2R,6R)-2-(3-Cyclopropyl-[1,2,4]oxadiazol-5-yl)-6-methyl-morpholin-4-yl]-quinoxaline-5-carbonitrile], the IC50 was 75 to 150 nM on TLR7 and below 75 nM on TLR8.
The matching figures for `C[C@H]1C[C@@H](N)CN(c2cc(F)c(C#N)c3ncccc23)C1` [Example 57, 5-((3R,5S)-3-Amino-5-methyl-piperidin-1-yl)-7-fluoro-quinoline-8-carbonitrile]: below 75 nM and below 75 nM.
The matching figures for `C[C@H]1C[C@@H](NCCC(=O)N2CC(O)C2)CN(c2ccc(C(F)(F)F)c3ncccc23)C1` [Example 53, 1-(3-Hydroxy-azetidin-1-yl)-3-[(3R,5S)-5-methyl-1-(8-trifluoromethyl-quinolin-5-yl)-piperidin-3-ylamino]-propan-1-one]: below 75 nM and 75 to 150 nM.
Regarding `C[C@@H]1CN(c2ccc(C#N)c3nccnc23)C[C@H](C(=O)NC[C@@H]2COCCN2)O1` (single isomer, unassigned) [Example 297], the IC50 on TLR7 and on TLR8 was below 75 nM each time.
`N#Cc1ccc(N2C[C@@H](C(=O)NC[C@@]3(F)CCNC3)O[C@@H](C(F)(F)F)C2)c2nccnc12` (single isomer, unassigned) [Example 308]: the IC50 on TLR7 and at TLR8 was below 75 nM each time.
`C[C@H]1C[C@@H](NCCC(=O)NC2CS(=O)(=O)C2)CN(c2ccc(C(F)(F)F)c3ncccc23)C1` [Example 54, N-(1,1-Dioxo-1lambda6-thietan-3-yl)-3-[(3R,5S)-5-methyl-1-(8-trifluoromethyl-quinolin-5-yl)-piperidin-3-ylamino]-propionamide]: the IC50 on TLR7 and at TLR8 was below 75 nM in each case.
Turning to `CNS(=O)(=O)CCNC(=O)[C@H]1CN(c2ccc(C#N)c3nccnc23)C[C@@H](C)O1` [Example 255, (2R,6R)-4-(8-cyanoquinoxalin-5-yl)-6-methyl-N-[2-(methylsulfamoyl)ethyl]morpholine-2-carboxamide], the IC50 at TLR7 and on TLR8 was below 75 nM each time.
As to `C[C@@H]1CN(c2ccc(C#N)c3ncncc23)C[C@H](CNC(=O)[C@@]2(F)CCNC2)O1` (single isomer, unassigned) [Example 344], the IC50 on TLR7 and at TLR8 was below 75 nM each time.
For `C[C@@H]1CN(c2ccc(C#N)c3ncncc23)C[C@H](C(=O)NCC2(F)CCN(C)CC2)O1` [Example 346, (2R,6R)-4-(8-Cyano-quinazolin-5-yl)-6-methyl-morpholine-2-carboxylic acid (4-fluoro-1-methyl-piperidin-4-ylmethyl)-amide], the IC50 at TLR7 and on TLR8 was below 75 nM throughout.
As for `N#Cc1ccc(N2C[C@H](NC(=O)[C@H]3CCCN3)C[C@H](C(F)(F)F)C2)c2cccnc12` [Example 126, (2R)—N-[(3R,5S)-1-(8-cyanoquinolin-5-yl)-5-(trifluoromethyl)piperidin-3-yl]pyrrolidine-2-carboxamide], the IC50 at TLR7 was 75 to 150 nM; on TLR8 it was above 150 nM.
In the case of `Cc1ccc(N2C[C@@H](C)C[C@@H](NC(=O)[C@@H]3CCCN3)C2)c2cccnc12` [Example 122, (2S)—N-[(3R,5S)-5-methyl-1-(8-methylquinolin-5-yl)piperidin-3-yl]pyrrolidine-2-carboxamide], the values for the IC50 at TLR7 and on TLR8 were above 150 nM and below 75 nM, respectively.
The matching figures for `CC(=O)NCCSC[C@H]1CN(c2cnc(C#N)c3ncccc23)C[C@@H](C)O1` [Example 374, N-{2-[(2R,6R)-4-(8-Cyano-[1,7]naphthyridin-5-yl)-6-methyl-morpholin-2-ylmethylsulfanyl]-ethyl}-acetamide]: above 150 nM and 75 to 150 nM.
The matching figures for `C[C@@H]1CN(c2ccc(C#N)c3nccnc23)C[C@H](C(=O)NC2CCNC3(CCC3)C2)O1` (stereo partly drawn) [Example 291, (2R,6R)-4-(8-Cyano-quinoxalin-5-yl)-6-methyl-morpholine-2-carboxylic acid (5-aza-spiro[3.5]non-8-yl)-amide]: below 75 nM and below 75 nM.
The matching figures for `N#Cc1ccc(N2C[C@H](NCCNC(N)=O)C[C@H](C(F)(F)F)C2)c2cccnc12` [Example 40, {2-[(3R,5S)-1-(8-Cyano-quinolin-5-yl)-5-trifluoromethyl-piperidin-3-ylamino]-ethyl}-urea]: above 150 nM and 75 to 150 nM.
Regarding `C[C@H]1C[C@@H](NS(=O)(=O)NC(=O)CC2CCN(C)CC2)CN(c2ccc(C(F)(F)F)c3ncccc23)C1` [Example 202, N-{[(3R,5S)-5-methyl-1-[8-(trifluoromethyl)quinolin-5-yl]piperidin-3-yl]sulfamoyl}-2-(1-methylpiperidin-4-yl)acetamide], the IC50 on TLR7 is 75 to 150 nM; on TLR8, below 75 nM.
